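Cells were grown in 96-well plates and exposed to each compound for 48 hours at five concentrations; endpoints were interpolated linearly between bracketing concentrations, or set to the highest concentration if not reached. GI50: concentration for 50% inhibition of growth.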 Calls of active or inactive are those of the source. Cut-off read from the data, not from the text of the source: active = GI50 up to about 1.1 µM and inactive = higher.
How the values were obtained:
Test in all cases: NCI anticancer screen, dose series, 48 h
KM-20L2 = test system: KM-20L2
SNB-78 = test system: SNB-78
DMS-114 = test system: DMS-114
HOP-18 = test system: HOP-18
RXF 631 = test system: RXF 631
DMS-273 = test system: DMS-273
LXFL 529 = test system: LXFL 529
XF498 = test system: XF498
M19-MEL = test system: M19-MEL

Measured: GI50

CCCCCCCCCCCCCCCC(=O)OCC(C[As](=O)(O)O)OC(=O)CCCCCCCCCCCCCCC (centres undefined)
inactive: KM-20L2 > 100 µM | SNB-78 22.4 µM | DMS-114 70.6 µM | HOP-18 > 100 µM | RXF 631 54.7 µM | DMS-273 > 100 µM | LXFL 529 > 100 µM | XF498 27 µM | M19-MEL > 100 µM

Source: ChEMBL document CHEMBL1201862, “PubChem BioAssay data set” (2004)
